Test results as given in patent publication US7396837B2, “Antitumoral analogs of lamellarins” (Pharma Mar, S.A.U., priority 2002, dated 2008).
“Also recorded” adds a separate entry of the source. Where two headings read alike, the source gives them in different places.

Tests used:
[1] = tested on: DU-145; assay: SRB colorimetric cell growth inhibition assay, DU-145; format: cell-based; details: Homo sapiens; for CC50: cell killing (cytotoxic effect), read-out: LC50 DU-145; for GI50: GI=growth inhibition, read-out: GI50 DU-145; for IC (TGI): total growth inhibition (cytostatic effect), read-out: TGI DU-145
How it was run: (§1)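 Sulforhodamine B colorimetric readout measured cell growth and viability after continuous compound exposure of human cancer cell lines in 96-well plates. Triplicate wells gave mean ± SD, from which growth inhibition (GI), cytostatic total growth inhibition (TGI) and cytotoxic cell killing (LC) were calculated.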

[2] = tested on: IGROV; assay: SRB colorimetric cell growth inhibition assay, IGROV; format: cell-based
How it was run: as §1

[3] = tested on: HT-29; assay: SRB colorimetric cell growth inhibition assay, HT-29; format: cell-based; details: Homo sapiens; for CC50: LC=cell killing (cytotoxic effect), read-out: LC50 HT-29; for GI50: GI=growth inhibition, read-out: GI50 HT-29; for IC (TGI): TGI=total growth inhibition (cytostatic effect), read-out: TGI HT-29
How it was run: as §1

[4] = tested on: LoVo-Dox; assay: SRB colorimetric cell growth inhibition assay, LoVo-Dox (MDR); format: cell-based
How it was run: as §1

[5] = tested on: K-562; assay: SRB colorimetric cell growth inhibition assay, K-562; format: cell-based; details: Homo sapiens, K562, K-562; for GI50: GI=growth inhibition, read-out: GI50 K-562; for CC50: LC=cell killing (cytotoxic effect), read-out: LC50 K-562; for IC (TGI): TGI=total growth inhibition (cytostatic effect), read-out: TGI K-562
How it was run: as §1

[6] = tested on: SK-MEL-28; assay: SRB colorimetric cell growth inhibition assay, SK-MEL-28; format: cell-based; details: Homo sapiens, SK-MEL-28, MEL-28; for GI50: GI=growth inhibition, read-out: GI50 MEL-28; for CC50: cell killing (cytotoxic effect), read-out: LC50 MEL-28; for IC (TGI): total growth inhibition (cytostatic effect), read-out: TGI MEL-28
How it was run: as §1

[7] = tested on: SK-BR-3; assay: SRB colorimetric cell growth inhibition assay, SK-BR-3; format: cell-based; details: Homo sapiens; for CC50: cell killing (cytotoxic effect), read-out: LC50 SK-BR-3; for GI50: GI=growth inhibition, read-out: GI50 SK-BR-3; for IC (TGI): total growth inhibition (cytostatic effect), read-out: TGI SK-BR-3
How it was run: as §1

[8] = tested on: LoVo; assay: SRB colorimetric cell growth inhibition assay, LoVo; format: cell-based; details: Homo sapiens; for CC50: LC=cell killing (cytotoxic effect), read-out: LC50 LOVO; for GI50: GI=growth inhibition, read-out: GI50 LOVO; for IC (TGI): TGI=total growth inhibition (cytostatic effect), read-out: TGI LOVO
How it was run: as §1

[9] = tested on: PANC-1; assay: SRB colorimetric cell growth inhibition assay, PANC-1; format: cell-based; details: Homo sapiens; for CC50: LC=cell killing (cytotoxic effect), read-out: LC50 PANC-1; for IC (TGI): TGI=total growth inhibition (cytostatic effect), read-out: TGI PANC-1; for GI50: GI=growth inhibition, read-out: GI50 PANC-1
How it was run: as §1

[10] = tested on: IGROV-ET; assay: SRB colorimetric cell growth inhibition assay, IGROV-ET (ET-743 resistant); format: cell-based; details: Homo sapiens, IGROV-ET; for GI50: GI=growth inhibition, read-out: GI50 IGROV-ET; for CC50: cell killing (cytotoxic effect), read-out: LC50 IGROV-ET; for IC (TGI): total growth inhibition (cytostatic effect), read-out: TGI IGROV-ET
How it was run: as §1

[11] = molecular target: T1, human topoisomerase I (Homo sapiens, UniProt P11387); assay: Topoisomerase I DNA relaxation assay (supercoiled plasmid DNA); format: biochemical; details: supercoiled plasmid DNA, each compound tested at 1 μM, agarose gel with ethidium bromide
T1 sequence (P11387 1-765): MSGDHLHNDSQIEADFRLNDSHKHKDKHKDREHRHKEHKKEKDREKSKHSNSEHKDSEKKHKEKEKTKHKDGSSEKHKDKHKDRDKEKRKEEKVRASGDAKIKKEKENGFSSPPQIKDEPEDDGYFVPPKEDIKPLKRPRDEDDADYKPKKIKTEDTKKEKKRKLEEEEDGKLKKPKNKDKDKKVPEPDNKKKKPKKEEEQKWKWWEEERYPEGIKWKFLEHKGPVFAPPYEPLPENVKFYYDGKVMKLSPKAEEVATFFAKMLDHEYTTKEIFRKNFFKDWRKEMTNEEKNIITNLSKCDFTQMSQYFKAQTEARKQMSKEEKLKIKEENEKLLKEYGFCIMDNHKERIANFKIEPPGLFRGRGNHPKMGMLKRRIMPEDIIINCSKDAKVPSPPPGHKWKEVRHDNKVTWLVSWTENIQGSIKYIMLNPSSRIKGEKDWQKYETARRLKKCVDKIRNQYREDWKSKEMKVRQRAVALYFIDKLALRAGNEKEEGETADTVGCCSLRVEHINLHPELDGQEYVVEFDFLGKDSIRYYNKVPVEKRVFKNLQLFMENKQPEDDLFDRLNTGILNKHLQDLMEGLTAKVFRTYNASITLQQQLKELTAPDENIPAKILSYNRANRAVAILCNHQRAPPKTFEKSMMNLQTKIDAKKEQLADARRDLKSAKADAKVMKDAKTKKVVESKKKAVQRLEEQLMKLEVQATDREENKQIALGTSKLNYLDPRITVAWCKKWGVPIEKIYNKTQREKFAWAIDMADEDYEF
How it was run: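 Test compounds (1 μM each) were present during topoisomerase I relaxation of supercoiled plasmid DNA. Relaxation was assessed on ethidium bromide-stained agarose gels.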

[12] = tested on: A-549; assay: SRB colorimetric cell growth inhibition assay, A-549; format: cell-based; details: Homo sapiens, A549, A-549; for GI50: GI=growth inhibition, read-out: GI50 A-549; for CC50: LC=cell killing (cytotoxic effect), read-out: LC50 A-549; for IC (TGI): TGI=total growth inhibition (cytostatic effect), read-out: TGI A-549
How it was run: as §1

[13] = tested on: LNCaP; assay: SRB colorimetric cell growth inhibition assay, LNCaP; format: cell-based; details: Homo sapiens, LNCaP, LN-caP; for GI50: GI=growth inhibition, read-out: GI50 LN-caP; for CC50: cell killing (cytotoxic effect), read-out: LC50 LN-caP; for IC (TGI): total growth inhibition (cytostatic effect), read-out: TGI LN-caP
How it was run: as §1

[14] = Homo sapiens, IGROV; cell killing (cytotoxic effect); read-out: LC50 IGROV
[15] = Homo sapiens, LOVO-DOX; GI=growth inhibition; read-out: GI50 LOVO-DOX
[16] = Homo sapiens, LOVO-DOX; LC=cell killing (cytotoxic effect); read-out: LC50 LOVO-DOX

COc1cc(-c2c3n(c4c(=O)oc5cc(OC(=O)[C@H](NC(=O)OC(C)(C)C)C(C)C)c(OC)cc5c24)CCc2cc(OC(=O)[C@H](NC(=O)OC(C)(C)C)C(C)C)c(OC)cc2-3)ccc1OC(=O)[C@H](NC(=O)OC(C)(C)C)C(C)C [Compound 34]
CC50 ([1]; DU-145, DU-145): 6.5 µM | GI50 ([1]; DU-145): 196 nM | IC (TGI) ([1]; DU-145): 0.588 µM | CC50 [2, 14]: 8.74 µM | GI50 ([2]; Homo sapiens; IGROV; GI=growth inhibition; read-out: GI50 IGROV): 307 nM | IC (TGI) ([2]; Homo sapiens; IGROV; total growth inhibition (cytostatic effect); read-out: TGI IGROV): 2.11 µM | CC50 ([3]; HT-29, HT-29): 9.1 µM | GI50 ([3]; HT-29): 1160 nM | IC (TGI) ([3]; HT-29): 5.39 µM | GI50 [4, 15]: 9.1 µM | CC50 [4, 16]: 9.1 µM | IC (TGI) ([4]; Homo sapiens; LOVO-DOX; TGI=total growth inhibition (cytostatic effect); read-out: TGI LOVO-DOX): 9.1 µM | GI50 [5]: 1040 nM | CC50 [5]: 6.62 µM | IC (TGI) [5]: 2.61 µM | GI50 [6]: 1360 nM | CC50 [6]: 5.58 µM | IC (TGI) [6]: 2.76 µM | CC50 ([7]; SK-BR-3, SK-BR-3): 8.95 µM | GI50 ([7]; SK-BR-3): 1180 nM | IC (TGI) ([7]; SK-BR-3): 3.25 µM | CC50 ([8]; LoVo): 9.1 µM | GI50 ([8]; LOVO): 840 nM | IC (TGI) ([8]; LOVO): 4.02 µM | CC50 ([9]; PANC-1, PANC-1): 9.1 µM | IC (TGI) ([9]; PANC-1, PANC-1): 0.992 µM | GI50 ([9]; PANC-1): 301 nM | GI50 [10]: 2070 nM | CC50 [10]: 9.1 µM | IC (TGI) [10]: 4.63 µM | stimulation of DNA cleavage by topoisomerase I / inhibition of topoisomerase I (nicked DNA band) in DNA relaxation assay [11]: No effect | GI50 [12]: 1470 nM | CC50 [12]: 9.1 µM | IC (TGI) [12]: 3.71 µM | GI50 [13]: 461 nM | CC50 [13]: 4110 nM | IC (TGI) [13]: 1.57 µM

COc1cc(-c2c3c4cc(OC)c(OC(=O)[C@@H](N)C(C)C)cc4oc(=O)c3n3ccc4cc(OC(=O)[C@@H](N)C(C)C)c(OC)cc4c23)ccc1OC(=O)[C@@H](N)C(C)C [Compound 36]
GI50 ([1]; DU-145, DU-145): 10.8 nM | CC50 ([1]; DU-145, DU-145): 0.668 µM | IC (TGI) ([1]; DU-145, DU-145): 0.0383 µM | GI50 ([2]; Homo sapiens, IGROV; GI=growth inhibition; read-out: GI50 IGROV): 46.9 nM | CC50 [2, 14]: 7.95 µM | IC (TGI) ([2]; Homo sapiens, IGROV; total growth inhibition (cytostatic effect); read-out: TGI IGROV): 0.409 µM | GI50 ([3]; HT-29, HT-29): 1510 nM | CC50 ([3]; HT-29, HT-29): 8.78 µM | IC (TGI) ([3]; HT-29, HT-29): 4.08 µM | GI50 [4, 15]: 0.145 µM | CC50 [4, 16]: 8.78 µM | IC (TGI) ([4]; Homo sapiens, LOVO-DOX; TGI=total growth inhibition (cytostatic effect); read-out: TGI LOVO-DOX): 0.525 µM | GI50 [5]: 9.48 nM | CC50 [5]: 5.7 µM | IC (TGI) [5]: 0.188 µM | GI50 [6]: 31.9 nM | CC50 [6]: 2.7 µM | IC (TGI) [6]: 0.181 µM | GI50 ([7]; SK-BR-3, SK-BR-3): 39.6 nM | CC50 ([7]; SK-BR-3, SK-BR-3): 2.94 µM | IC (TGI) ([7]; SK-BR-3, SK-BR-3): 0.221 µM | GI50 ([8]; LoVo): 158 nM | CC50 ([8]; LoVo): 0.652 µM | IC (TGI) ([8]; LoVo): 0.321 µM | GI50 ([9]; PANC-1, PANC-1): 169 nM | CC50 ([9]; PANC-1, PANC-1): 8.78 µM | IC (TGI) ([9]; PANC-1, PANC-1): 1.13 µM | GI50 [10]: 76.5 nM | CC50 [10]: 8.78 µM | IC (TGI) [10]: 0.54 µM | stimulation of DNA cleavage by topoisomerase I / inhibition of topoisomerase I (nicked DNA band) in DNA relaxation assay [11]: marked inhibition of topoisomerase I; also recorded: stimulated DNA cleavage by the enzyme | GI50 [12]: 32.8 nM | CC50 [12]: 1.69 µM | IC (TGI) [12]: 0.154 µM | GI50 [13]: 42.8 nM | CC50 [13]: 424 nM | IC (TGI) [13]: 0.156 µM
